Measured values reported in patent publication US20260293901A1 (priority 2023, published 2026).

Tests used:
Phytophthora infestans = type: in vivo; conditions: 200 ppm; tomato leaf disks, preventative; inoculated 1 day after application; assessed 5-7 days after application
Pythium ultimum = test: Pythium ultimum/Liquid Culture (Seedling Damping Off); type: cell-based; conditions: Globisporangium ultimum, read-out: control of Pythium ultimum (inhibition of growth determined photometrically)
Plasmopara viticola = type: in vivo; conditions: 200 ppm; grape vine leaf disks, preventative; inoculated 1 day after application; assessed 6-8 days after application

Row | SMILES | control of Phytophthora infestans (percent disease control compared to untreated) (Phytophthora infestans) | inhibition at 20 ppm (Pythium ultimum) | control of Plasmopara viticola (percent disease control compared to untreated) (Plasmopara viticola)
1 | COC(=O)Nc1ccc(-c2cnc3c(C)cc(C(=O)N(C)c4ccc(F)c(OC)c4)nn23)cn1 [Compound 4, methyl N-[5-[6-[(4-fluoro-3-methoxy-phenyl)-methyl-carbamoyl]-8-methyl-imidazo[1,2-b]pyridazin-3-yl]-2-pyridyl]carbamate] | at least 80% | ≥ 80% | at least 80%
2 | COC(=O)Nc1ccc(-c2cnc3c(C)cc(C(=O)N(C)c4ccc(F)cc4)nn23)cn1 [Compound 3, methyl N-[5-[6-[(4-fluorophenyl)-methyl-carbamoyl]-8-methyl-imidazo[1,2-b]pyridazin-3-yl]-2-pyridyl]carbamate] | at least 80% |  | at least 80%
3 | COC(=O)Nc1ccc(-c2cnc3c(C)cc(C(=O)N4CCCc5cc(F)ccc54)nn23)cn1 [Compound 2, methyl N-[5-[6-(6-fluoro-3,4-dihydro-2H-quinoline-1-carbonyl)-8-methyl-imidazo[1,2-b]pyridazin-3-yl]-2-pyridyl]carbamate] | at least 80% |  | 
4 | COC(=O)Nc1ccc(-c2cnc3c(C)cc(C(=O)N(C)c4ccc(F)c(C)c4)nn23)cn1 [Compound 1, methyl N-[5-[6-[(4-fluoro-3-methyl-phenyl)-methyl-carbamoyl]-8-methyl-imidazo[1,2-b]pyridazin-3-yl]-2-pyridyl]carbamate] |  |  | at least 80%
5 | COC(=O)Nc1ccc(-c2cnc3ccc(C(=O)N(C)c4ccc(F)c(OC)c4)nn23)cn1 [Compound 8, methyl N-[5-[6-[(4-fluoro-3-methoxy-phenyl)-methyl-carbamoyl]imidazo[1,2-b]pyridazin-3-yl]-2-pyridyl]carbamate] | at least 80% | ≥ 80% | at least 80%
